Our source for the MIC, IC50 and Activity values is ChEMBL document CHEMBL1150885, “Antibacterial activity of lonchocarpol A” (J Nat Prod, 1998).

Structures are written as SMILES. In brackets after ≈: the same amount, converted by molar mass.

For series [1], the system named is Mycolicibacterium smegmatis. Briefly: Antibacterial activity against Mycobacterium smegmatis after 24 hrs by broth microtiter susceptibility assay in absence of mouse plasma. In kind it is functional.
Series [2] deals with Staphylococcus aureus. Briefly: Antibacterial activity against methicillin-resistant Staphylococcus aureus after 24 hrs by broth microtiter susceptibility assay in absence of mouse plasma. In kind it is functional.
Series [3] deals with Priestia megaterium. Briefly: Inhibition of protein synthesis in Bacillus megaterium Mb 410 assessed as L-[4,5-3H]leucine incorporation by scintillation counting. It counts as functional, organism-based.
Series [4] deals with Priestia megaterium. As to the kind of experiment: Inhibition of DNA synthesis in Bacillus megaterium Mb 410 assessed as [6-3H]thymidine incorporation by scintillation counting. It counts as functional, organism-based. A general note: Uptake of a labelled nucleoside into DNA is a usual measure of proliferation.
Series [5] is described as follows: Toxicity in defibrinated sheep RBC assessed as minimum lytic concentration causing hemolysis after 2 hrs by liquid microtiter assay. It counts as cell-based, Ovis aries. The following applies: erythrocyte.
Series [6] has as its system Mycolicibacterium smegmatis. Briefly: Antibacterial activity against Mycobacterium smegmatis after 24 hrs by broth microtiter susceptibility assay in presence of mouse plasma. In kind it is functional.
Series [7] deals with Enterococcus faecium. As to the kind of experiment: Antibacterial activity against vancomycin-resistant Enterococcus faecium after 24 hrs by broth microtiter susceptibility assay in absence of mouse plasma. It counts as functional.
In series [8] the test system is Priestia megaterium. Briefly: Inhibition of cell wall synthesis in Bacillus megaterium Mb 410 assessed as [2,6-3H]diaminopimelic incorporation by scintillation counting. In kind it is functional, organism-based.
Series [9] concerns L1210. Briefly: Cytotoxicity against mouse L1210 cells by MTT assay. It counts as functional, cell-based. Background: Tetrazolium assays rely on reduction of a dye to a coloured formazan, in cell work by metabolically active cells.
In series [10] the test system is L1210. Briefly: Cytotoxicity against mouse L1210 cells after 24 hrs by trypan blue assay. It counts as functional, cell-based. The following applies: L1210, 24 h.
The subject of series [11] is Enterococcus faecium. As to the kind of experiment: Antibacterial activity against vancomycin-resistant Enterococcus faecium after 24 hrs by broth microtiter susceptibility assay in presence of mouse plasma. It counts as functional.
For series [12], the system named is Priestia megaterium. Briefly: Antibacterial activity against Bacillus megaterium Mb 410 after 24 hrs by broth microtiter susceptibility assay in absence of mouse plasma. It counts as functional.
The test system of series [13] is Priestia megaterium. As to the kind of experiment: Inhibition of RNA synthesis in Bacillus megaterium Mb 410 assessed as [5,6-3H]uracil incorporation by scintillation counting. It counts as functional, organism-based.
Series [14] concerns Staphylococcus aureus. Briefly: Antibacterial activity against methicillin-resistant Staphylococcus aureus after 24 hrs by broth microtiter susceptibility assay in presence of mouse plasma. It counts as functional.

For orientation: MIC means the smallest concentration in the dilution series that meets the test's criterion for growth inhibition. For orientation: IC50 means the point on the concentration scale where inhibition reaches its midpoint. `CC(C)=CCc1c(O)c(CC=C(C)C)c2c(c1O)C(=O)C[C@@H](c1ccc(O)cc1)O2` [LONCHOCARPOL A]: the MIC is greater than 100 µg/mL in [1]; 0.78 µg/mL (≈ 1.91 µM) against Staphylococcus aureus [2]; no less than 100 µg/mL in series [6]; 0.78 µg/mL (≈ 1.91 µM) with Enterococcus faecium [7]; no less than 100 µg/mL with Enterococcus faecium [11]; 1 µg/mL (≈ 2.45 µM) in the series with Priestia megaterium [12]. The MIC in the series on Staphylococcus aureus [14] was no less than 100 µg/mL. Moreover, the IC50 in the series on Priestia megaterium [3] is 2.5 µg/mL (≈ 6.12 µM); in the series with Priestia megaterium [4] it was 3.9 µg/mL (≈ 9.55 µM); in the series with Priestia megaterium [8], 1.9 µg/mL (≈ 4.65 µM); with L1210 [9] it was greater than 10 µg/mL; in the series on L1210 [10] it was 10 µg/mL (≈ 24.5 µM); in the series with Priestia megaterium [13], 1.9 µg/mL (≈ 4.65 µM). Moreover, the Activity result in series [5] is given as “>= 100 ug ml-1”.
